The species named for one assay is Cavia porcellus. As to the kind of experiment: In vitro potency relative to PGE-2 (=100 for uterine stimulant activity in guinea pig at 0.1-10 ug/mL concentration). In kind it is functional.
In assay [1] the test system is Mus musculus. As to the kind of experiment: In vivo potency relative to PGE-2 =100 for diarrheal activity in conscious mice at 0.3-3.0 mg/kg, iv; No effect. In kind it is functional, organism-based.
Assay [2] has as its system Mus musculus. Put plainly: In vivo potency relative to PGE-2 =100 for diarrheal activity in conscious mice. In kind it is functional.

Active and inactive are the calls of the source. The rule behind the calls is not given here.

With `O=C(O)CCC/C=C\C[C@H]1C(=O)C[C@@H](O)C1/C=C/[C@H](O)[C@H]1CCc2ccccc2O1` (stereo partly drawn), the Relative potency in the assay listed under Cavia porcellus stood at 3.

For the compound `O=C(O)CCC/C=C\C[C@@H]1C(/C=C/[C@H](O)COc2ccccc2)[C@H](O)C[C@@H]1O` (stereo partly drawn), the Relative potency in the assay filed under Cavia porcellus is recorded as 300.

In the case of `O=C(O)CCC/C=C\C[C@@H]1C(/C=C/[C@H](O)[C@@H]2CCc3ccccc3C2)[C@H](O)C[C@@H]1O` (stereo partly drawn), the Relative potency in the assay filed under Cavia porcellus amounted to 0.1.

`O=C(O)CCC/C=C\C[C@H]1C(=O)C[C@@H](O)C1/C=C/[C@H](O)C1Cc2ccccc2C1` (stereo partly drawn) had a Relative potency in the assay filed under Cavia porcellus of 0.3. Moreover, the Relative potency result in the assay on Mus musculus [1] was “inactive”.

For the compound `O=C(O)CCC/C=C\C[C@@H]1C(/C=C/[C@@H](O)[C@H]2CCc3ccccc3O2)[C@H](O)C[C@@H]1O` (stereo partly drawn), the Relative potency in the assay filed under Cavia porcellus was determined as 19; with Mus musculus [2], 310.

`O=C(O)CCC/C=C\C[C@H]1C(=O)C[C@@H](O)C1/C=C/[C@H](O)[C@@H]1CCc2ccccc2O1` (stereo partly drawn) had a Relative potency in the assay filed under Cavia porcellus of 7.

For the compound `O=C(O)CCC/C=C\C[C@H]1C(=O)C[C@@H](O)C1/C=C/[C@@H](O)[C@@H]1Cc2ccccc2O1` (stereo partly drawn), the Relative potency in the assay listed under Cavia porcellus is on record as 18; with Mus musculus [2], greater than 250.

In the assay filed under Cavia porcellus, `O=C(O)CCC/C=C\C[C@H]1C(=O)C[C@@H](O)C1/C=C/[C@H](O)[C@@H]1CCc2ccccc2C1` (stereo partly drawn) gave a Relative potency of 2.

On to `O=C(O)CCC/C=C\C[C@@H]1C(/C=C/[C@H](O)C2Cc3ccccc3C2)[C@H](O)C[C@@H]1O` (stereo partly drawn), for which the Relative potency in the assay listed under Cavia porcellus was 0.07. Also, the Relative potency result in the assay with Mus musculus [1] is “inactive”.

In the assay listed under Cavia porcellus, `O=C(O)CCC/C=C\C[C@@H]1C(/C=C/[C@H](O)[C@H]2CCc3ccccc3C2)[C@H](O)C[C@@H]1O` (stereo partly drawn) came in with a Relative potency of 0.1.

For the compound `O=C(O)CCC/C=C\C[C@@H]1C(/C=C/[C@@H](O)[C@@H]2CCc3ccccc3O2)[C@H](O)C[C@@H]1O` (stereo partly drawn), the Relative potency in the assay filed under Cavia porcellus worked out at 25; in the assay with Mus musculus [2], 1100.

As to `O=C(O)CCC/C=C\C[C@@H]1C(/C=C/[C@@H](O)[C@@H]2CCc3ccccc3C2)[C@H](O)C[C@@H]1O` (stereo partly drawn), the Relative potency in the assay listed under Cavia porcellus was 18; in the assay with Mus musculus [2] it was 40.

Regarding `O=C(O)CCC/C=C\C[C@@H]1C(/C=C/[C@@H](O)[C@@H]2Cc3ccccc3O2)[C@H](O)C[C@@H]1O` (stereo partly drawn), the Relative potency came out at 5 in the assay listed under Cavia porcellus and 190 with Mus musculus [2].

On to `O=C(O)CCC/C=C\C[C@H]1C(=O)C[C@@H](O)C1/C=C/[C@@H](O)[C@@H]1CCc2ccccc2O1` (stereo partly drawn), for which the Relative potency is 130 in the assay listed under Cavia porcellus and 730 in the assay on Mus musculus [2].

`O=C(O)CCC/C=C\C[C@H]1C(=O)C[C@@H](O)C1/C=C/[C@H](O)[C@H]1CCc2ccccc2C1` (stereo partly drawn) showed a Relative potency in the assay filed under Cavia porcellus of 0.1. Further, the Relative potency result with Mus musculus [1] is “inactive”.

Regarding `O=C(O)CCC/C=C\C[C@@H]1C(/C=C/[C@@H](O)COc2ccccc2)[C@H](O)C[C@@H]1O` (stereo partly drawn), the Relative potency is 15 in the assay listed under Cavia porcellus and 150 with Mus musculus [2].

As to `O=C(O)CCC/C=C\C[C@H]1C(=O)C[C@@H](O)C1/C=C/[C@@H](O)[C@H]1CCc2ccccc2O1` (stereo partly drawn), the Relative potency in the assay filed under Cavia porcellus is listed as 66; with Mus musculus [2], 270.

`O=C(O)CCC/C=C\C[C@H]1C(=O)C[C@@H](O)C1/C=C/[C@@H](O)[C@H]1CCc2ccccc2C1` (stereo partly drawn) gave a Relative potency in the assay filed under Cavia porcellus of 44. In addition, in the assay with Mus musculus [1], the Relative potency entry was “inactive”.

In turn, `O=C(O)CCC/C=C\C[C@H]1C(=O)C[C@@H](O)C1/C=C/[C@@H](O)[C@H]1Cc2ccccc2O1` (stereo partly drawn) gave a Relative potency in the assay listed under Cavia porcellus of 0.1. Besides, in the assay on Mus musculus [1], the Relative potency result was “inactive”.

Turning to `O=C(O)CCC/C=C\C[C@@H]1C(/C=C/[C@@H](O)[C@H]2CCc3ccccc3C2)[C@H](O)C[C@@H]1O` (stereo partly drawn), the Relative potency in the assay listed under Cavia porcellus came out at 2; with Mus musculus [2], 10.

As for `O=C(O)CCC/C=C\C[C@H]1C(=O)C[C@@H](O)C1/C=C/[C@H](O)C1Cc2ccccc2O1` (stereo partly drawn), the Relative potency in the assay listed under Cavia porcellus was determined as 19; with Mus musculus [2], 15.

`O=C(O)CCC/C=C\C[C@@H]1C(/C=C/[C@H](O)C2Cc3ccccc3O2)[C@H](O)C[C@@H]1O` (stereo partly drawn): the figures for the Relative potency in the assay listed under Cavia porcellus and in the assay on Mus musculus [2] were 0.3 and 15, respectively.

Consider `O=C(O)CCC/C=C\C[C@@H]1C(/C=C/[C@@H](O)[C@H]2Cc3ccccc3O2)[C@H](O)C[C@@H]1O` (stereo partly drawn), for which the Relative potency in the assay filed under Cavia porcellus is reported as 0.2; with Mus musculus [2], 10.

For `O=C(O)CCC/C=C\C[C@H]1C(=O)C[C@@H](O)C1/C=C/[C@@H](O)[C@@H]1CCc2ccccc2C1` (stereo partly drawn), the Relative potency came to 36 in the assay listed under Cavia porcellus and 40 with Mus musculus [2].

In turn, `O=C(O)CCC/C=C\C[C@@H]1C(/C=C/[C@H](O)[C@H]2CCc3ccccc3O2)[C@H](O)C[C@@H]1O` (stereo partly drawn) had a Relative potency in the assay listed under Cavia porcellus of 0.8.

In turn, `O=C(O)CCC/C=C\C[C@@H]1C(/C=C/[C@H](O)[C@@H]2CCc3ccccc3O2)[C@H](O)C[C@@H]1O` (stereo partly drawn) had a Relative potency in the assay listed under Cavia porcellus of 0.4.

Take `O=C(O)CCC/C=C\C[C@H]1C(=O)C[C@@H](O)C1/C=C/[C@@H](O)C1Cc2ccccc2C1` (stereo partly drawn): the figures for the Relative potency in the assay filed under Cavia porcellus and in the assay with Mus musculus [2] were 6 and 25, respectively.

Turning to `O=C(O)CCC/C=C\C[C@@H]1C(/C=C/[C@@H](O)C2Cc3ccccc3C2)[C@H](O)C[C@@H]1O` (stereo partly drawn), the values for the Relative potency in the assay filed under Cavia porcellus and with Mus musculus [2] were 0.3 and 50, respectively.

(Values after ChEMBL document CHEMBL1122339, “Structure-activity studies of configurationally rigid arylprostaglandins” (1983).)
